Measured values reported in PMC12040169 (PLOS Biology, 2025).

Assay: in vitro
Conditions: human, hela cells, % viability

| Compound | viability at 28.5 h, 10 µM [%] |
| --- | --- |
| CCCn1ccnc1-c1cn(Cc2cc(C(C)(C)C)n[nH]2)nn1 [CBK306791] | 118 |
| Cn1c(CO)nnc1[C@H]1C[C@@H](NC(=O)CCc2ccc(F)cc2F)C1 [CBK306796] | 86.4 |
| Cc1c[nH]c(CN(C)c2cc([C@H]3C[C@@H](N)C3)nc(N3CCCC3)n2)n1 [CBK306798] | 84.4 |
| CCCOCC1CCN(C(=O)Nc2ccc(Oc3cccnc3)cc2)C1 (stereo not drawn) [CBK306799] | 102 |
| CCCn1cnnc1C(C)NC(=O)Nc1ccnn1CC1CCCCC1 (stereo not drawn) [CBK306800] | 105 |
| CN1CCC(Cc2nc(CC3CCCOC3)n(CC(F)(F)F)n2)CC1 (stereo not drawn) [CBK306801] | 83.2 |
| CCC(c1cccnc1)N(C)C(=O)c1ccc(=O)n(C)c1 (stereo not drawn) [CBK306802] | 101 |
| COc1cccc(C(=O)NCCC(=O)N2CCC3(CC2)CNC(=O)O3)c1 [CBK306803] | 88.2 |
| CCc1noc(C)c1C(=O)NCc1cccnc1N(C)C1CCCCC1 [CBK306804] | 98.9 |
| CCOCCNC(=O)c1coc(COc2ccc3sc(C)nc3c2)n1 [CBK306805] | 109 |
| Cc1nccnc1N1CCC2(CCCN(CC3CCC3)C2=O)C1 (stereo not drawn) [CBK306806] | 103 |
| CN(Cc1ccc(CN2CCOC(c3ccccc3)C2)o1)S(C)(=O)=O (stereo not drawn) [CBK306808] | 88.2 |
| Cc1cc(=O)c2ccccc2n1CC(=O)N1CCC2(CCO2)CC1 [CBK306809] | 88.5 |
| CC(NC(=O)C1(Cn2ccnc2)CC1)c1cccnc1 (stereo not drawn) [CBK306812] | 97.3 |
| CCCc1cc(C(=O)N2CCN(C)C3(CCNC(=O)CC3)C2)ccn1 (stereo not drawn) [CBK306815] | 96.2 |
| Cc1nnnn1CCC(=O)NCCc1cn2ccccc2n1 [CBK306816] | 121 |
| Cc1ccc(C(=O)NC(CC(C)C)c2nnc3n2CCNCC3)c(F)c1 (stereo not drawn) [CBK306817] | 85 |
| Cn1c(O)c(CCNc2cc([C@H]3C[C@@H](N)C3)nc(C3CC3)n2)cnc1=O [CBK306819] | 85 |
| O=c1c2c(-c3ccc(F)cc3)csc2ncn1CC1(CO)CCOCC1 [CBK306822] | 88 |
| CCN1CC2(CCC1=O)CCN(Cc1cccc(CCN)c1)CC2 [CBK306823] | 100 |
| Cn1c(N2CC[C@H](O)C2)nc2cc(C(=O)NCCc3cscn3)ccc21 [CBK306824] | 88.5 |

| Compound | viability at 28.5 h, 10 µM [%] |
| --- | --- |
| CC(C)c1nc(CCNC(=O)C2(Cn3ccnc3)CC2)no1 [CBK306828] | 86.2 |
| CC(C)[C@H]1CN(Cc2cc(C#N)n(C)c2)C[C@@H]1NC(=O)C1CCC1 [CBK306832] | 91.6 |
| COc1cncc(C(NC(=O)c2cc(=O)cc(C)o2)[C@H]2C[C@@H](O)C2)c1 (stereo partly drawn) [CBK306833] | 97.5 |
| CCn1nc(-c2ccc(C)o2)nc1CC1NC(=O)c2ccccc21 (stereo not drawn) [CBK306834] | 87 |
| COc1ccccc1C(=O)N1CCN(c2nc3c(s2)c(C)nn3C)CC1 [CBK306836] | 86.6 |
| CSc1cccc(CN(C)C(=O)c2cc(C#N)c(=O)[nH]c2C)c1 [CBK306839] | 93 |
| Cc1ccc(OCc2occc2C(=O)N2CCCCC(N)C2)cc1 (stereo not drawn) [CBK306840] | 107 |
| O=C(c1coc(COc2cccc(F)c2)n1)N1CC(n2cccn2)C1 [CBK306842] | 77.2 |
| CCC(NC(=O)Nc1cc(N2CCOCC2)ccc1Cl)c1cnn(C)c1 (stereo not drawn) [CBK306844] | 114 |
| COCc1nc(NCCCn2c(C)cccc2=O)cc(C2CCOC2)n1 (stereo not drawn) [CBK306845] | 90.9 |
| CCC1(C)CC(=O)c2cc(NC(=O)N3CCc4n[nH]cc4C3)ccc2O1 (stereo not drawn) [CBK306846] | 90.3 |
| Cc1cc(C)n(CCNC2CCN(c3ccccc3C)CC2)c(=O)n1 [CBK306848] | 89.1 |
| CN(CCOc1ccccc1)c1cc(C2CC(N)C2)nc(N)n1 (stereo not drawn) [CBK306849] | 97 |
| COc1cc2c(cc1-c1nccn1CC1CN(C(C)=O)CCO1)CCC2 (stereo not drawn) [CBK306850] | 88.7 |
| COc1ncnc(C)c1-c1cc(C)c(OC)c(C)c1 [CBK306852] | 100 |
| CCOC(=O)N1CCN(C2CCCN(Cc3c(C)nn(C)c3Cl)C2)CC1 (stereo not drawn) [CBK306853] | 96.2 |
| CN(CC(O)CO)C(=O)c1coc(COc2cccc(F)c2)n1 (stereo not drawn) [CBK306854] | 88.5 |
| Cc1cccn2c(CN3CC(O)C3)c(C(=O)N3CCOCC3)nc12 [CBK306857] | 104 |
| CN(C)c1ccc(-c2nc(N(C)C)n(C)n2)cn1 [CBK306858] | 90.1 |
| Cc1ccc(F)c(OC2(C(=O)O)CCN(Cc3cnc(C)nc3)CC2)c1 [CBK306860] | 100 |
| COc1nccc(N2CCC3(CCCN(CC4CCC4)C3=O)C2)c1C#N (stereo not drawn) [CBK306861] | 84.3 |

| Compound | viability at 28.5 h, 10 µM [%] |
| --- | --- |
| CCn1cc(CN(CC(C)C)C(=O)c2c(C)nc3ccccn23)cn1 [CBK306862] | 97.8 |
| CCC(O)CNc1ccc(C(=O)N2CCC(N3CCOCC3)CC2)cn1 (stereo not drawn) [CBK306865] | 95.1 |
| Cc1cccc(C(=O)NC(CC(C)C)c2nnc3n2CCNCC3)n1 (stereo not drawn) [CBK306866] | 108 |
| COc1ccccc1-n1nc(-c2ccncc2)nc1C(C)NS(C)(=O)=O (stereo not drawn) [CBK306868] | 98 |
| Cn1nnnc1SCCNC(=O)Nc1cccc(CN2CCCCC2)c1 [CBK306872] | 97.3 |
| CC1CCCN(C(=O)c2coc(COc3ccc(F)cc3)n2)C1 (stereo not drawn) [CBK306874] | 85.5 |
| CNc1nc(NCCCn2c(C)cccc2=O)cc(C2CCOC2)n1 (stereo not drawn) [CBK306875] | 117 |
| CCCN(C(=O)c1coc(COc2ccc3sc(C)nc3c2)n1)C1CC1 [CBK306878] | 84 |
| CCN(C(=O)Cn1cccc(OC)c1=O)C1CCOC(C)(C)C1 (stereo not drawn) [CBK306879] | 86.5 |
| CCN1CC2(CCCN(Cc3nnc(-c4cccnc4)o3)C2)CCC1=O (stereo not drawn) [CBK306881] | 86.4 |
| CCCC(=O)NC1CC(C)(C)Cc2nc(N3CCOCC3)ncc21 (stereo not drawn) [CBK306883] | 94.7 |
| CC(C)c1nccc(CN2CCC(CCN3CCCC3=O)CC2)n1 [CBK306887] | 116 |
| O=C(CCNCCc1c[nH]c(=O)[nH]c1=O)Nc1cccc(Cl)c1 [CBK306889] | 86.3 |
| COCCN(Cc1cnn(C)c1)C(=O)c1nc2ccccn2c1F [CBK306892] | 100 |
| Cc1ncsc1CCN(C)C(=O)Cn1nc(C)c2ccccc2c1=O [CBK306893] | 86.3 |
| Cn1ccnc1CNc1nc(C(C)(C)C)nc2c1cnn2C [CBK306894] | 100 |
| Cc1nc(C2CC(=O)N(Cc3ccccn3)C2)n(-c2ccccc2F)n1 (stereo not drawn) [CBK306895] | 89.6 |
| COc1ccc2c(c1)c(C(=O)N1CC(C)(C)C(C)(O)C1)c(C)n2C (stereo not drawn) [CBK306896] | 77.2 |
| CC(C)N(C(=O)c1ccccc1-c1cnc2cccnn12)C(C)C [CBK306900] | 97.8 |
| COCCn1ccnc1C1CCN(C(=O)C(O)c2cccc(Cl)c2)CC1 (stereo not drawn) [CBK306901] | 99.8 |
| CC(C)n1ccnc1CN1CCn2nc(CNc3cnccn3)cc2C1 [CBK306902] | 98.7 |

| Compound | viability at 28.5 h, 10 µM [%] |
| --- | --- |
| Cc1cc(C)n(CCCC(=O)N2CCC3(CC2)CC(=O)N(C)C3)n1 [CBK306905] | 90.5 |
| Cc1nnc(SCC(=O)N2CCCN(c3ccc(F)cc3)CC2)s1 [CBK306908] | 88.7 |
| COCCn1cnnc1CN(C)C(=O)NCc1cc2ccccc2s1 [CBK306911] | 98.6 |
| CCCN1CC(NC(=O)c2cc(COc3cccc(F)c3)[nH]n2)CC1=O (stereo not drawn) [CBK306912] | 82.2 |
| Cc1cccnc1CN(C)C(=O)c1cccc(NC(=O)C2CCCC2)c1 [CBK306913] | 82.9 |
| CC(=O)Oc1c(C)cc(CN(C)C(C)c2ccncc2)cc1C (stereo not drawn) [CBK306915] | 73.2 |
| CCN(C(=O)Nc1ccc(-c2ccco2)cc1)C1CCOCC1 [CBK306916] | 95.8 |
| COC[C@H](C)Nc1ccc(C(=O)N2CCC(N3CCOCC3)CC2)cn1 [CBK306917] | 84.8 |
| Cc1nn2cc(CNC(=O)CN3CCOc4ccccc4C3)nc2s1 [CBK306921] | 89 |
| CCn1cc(Cl)c(C(=O)NC2CCN(c3cnccn3)CC2)n1 [CBK306922] | 95.5 |
| CCc1ocnc1C(=O)NC1CCCN(Cc2ccccc2F)C1 (stereo not drawn) [CBK306924] | 104 |
| CC(C)CNC(=O)c1cccc(NC(=O)N2CCC2c2cccs2)c1 (stereo not drawn) [CBK306927] | 99.9 |
| CCc1nccn1CC(=O)N(C)C1CCCN(Cc2ccccc2F)C1 (stereo not drawn) [CBK306928] | 102 |
| COc1cccc(OCC2CCCN(C(=O)CCc3cnn(C)c3)C2)c1 (stereo not drawn) [CBK306931] | 85 |
| CC(=O)N1CCc2nc(CC3CC3)nc(NCCn3ccnn3)c2CC1 [CBK306933] | 94.7 |
| COCCN(Cc1ccccc1C)C(=O)C1CCc2nn(C)c(=O)n2C1 (stereo not drawn) [CBK306934] | 80.8 |
| CCCCC(c1cccnc1)N(C)C(=O)Cn1ccccc1=O (stereo not drawn) [CBK306936] | 104 |
| COc1cccc2ncn(Cc3n[nH]c(C)n3)c(=O)c12 [CBK306938] | 89.7 |
